Patent publication US12121514B2, “Nonselective metabotropic glutamate receptor activators for treatment of attention deficit disorder and 22Q syndrome” (THE CHILDREN'S HOSPITAL OF PHILADELPHIA, priority 2015, dated 2024)
Several values for one entry are separate records, joined by “and”; a condition that tells them apart may be missing. Equal values may be shown once.

Tested on: adolescent subjects with ADHD and at least one genetic alteration in an mGluR network gene
Experiment: Vanderbilt ADHD score (items 1-18, parent), Phase Ib trial of NFC-1
Format: in vivo, human
Settings: for Change in Vanderbilt / Final Vanderbilt: individual subjects, monohydrate; for Change in Vanderbilt: placebo baseline (week 1) to final (week 5); for Final Vanderbilt: week 5; for Mean (SEM) Vanderbilt ADHD score, Repeated Measures Analysis: overall study population; for Percent of subjects completing the dose escalation to 400 mg bid that show improvement in Vanderbilt ADHD scores (at least 25% decrease) / Percent of subjects completing the dose escalation to 400 mg bid that show robust improvement in Vanderbilt ADHD scores (at least 40% decrease) / Percent of subjects demonstrating robust improvement in Vanderbilt ADHD score (at least 40% decrease) / Percent of subjects with improvement in Vanderbilt ADHD score (at least 25% decrease): relative to placebo (week 1) baseline
From the text: The Vanderbilt Rating Scale is a measure that can be completed by parents or teachers (separate forms, see Vanderbilt Rating Scale Parents and Vanderbilt Rating Scale Teachers). The Vanderbilt scale rates the child's behavior on items such as attention, finishing tasks, hyperactivity, difficulty waiting, and measures of conduct or oppositional defiant disorders—as well as measures of overall school performance and interactions with others. The first 18 items on the Vanderbilt scale correspond to those of the ADHD Rating Scale IV above while the Vanderbilt scale also includes items 19-47 related to other mental disorders including ODD (items 19-26), conduct disorder (items 27-40), anxiety (items 41, 42, and 47), and depression (items 43-46). Each of the behavioral assessment items on the Vanderbilt Scale are rated 0, 1, 2, or 3, with 0=never occurring; 1=occasionally, 2=often, and 3=very often. Thus, the ADHD Rating Scale IV, ADHD Rating Scale V, and items 1-18 of the Vanderbilt Rating Scale are equivalent scales, while additional items on the Vanderbilt Scale assess co-morbid phenotypes and disorders.
Each of the items are rated on a scale of 0, 1, 2, or 3, with 0=never; 1=occasionally, 2=often, and 3=very often. A total score of 0 to 54 is computed based on the answers to the 18 questions.
As used herein an “ADHD rating scale score,” “ADHD score” or “Vanderbilt ADHD score” are used interchangeably to refer to the computed score of the 18 items of the ADHD Rating Scale IV or V or the first 18 items of the Vanderbilt Rating Scale in any of their associated versions, e.g., for parent, teacher, or clinician to complete, and for a pediatric subject or adult subject. Clinical trials may assess the impact of drug or placebo on the ADHD score or Vanderbilt ADHD score (i.e. the score of 0 to 54 based on the first 18 items in the ADHD or Vanderbilt rating scale). In some cases, results of a clinical trial population may be analyzed by comparing the average score or a percentage change in score over time of administration of drug.
An open-label Phase Ib clinical trial was initiated to investigate the safety, pharmacokinetics and efficacy of NFC-1 (fasoracetam monohydrate) in adolescent subjects between the ages of 12 and 17 previously diagnosed with ADHD who also had at least one genetic alteration in an mGluR network gene.
Dose-escalation phase of the trial followed the PK and initial safety assessment and ran over a 5-week period. During week 1, all subjects were administered placebo capsules twice daily. After one week of placebo treatment, patients were started on 50 mg bid NFC-1 for 1 week. If safety and responsiveness data from prior dose level of fasoracetam indicated it was appropriate, subjects were then escalated to the next higher dose (100, 200, or 400 mg). […] Of the 30 trial subjects, 3 received a maximum dose of 100 mg, 9 received a maximum dose of 200 mg, and the remaining 18 received a maximum dose of 400 mg.
All efficacy assessments, except actigraphy, were made at study enrollment (“enrollment baseline”) and again, including actigraphy, once-per-week for the placebo week (“week 1” or “placebo baseline”) and at each of the 4 weeks of NFC-1 treatment. These efficacy measures include items 1-18 of the Vanderbilt scale assessing symptoms related to inattentiveness and hyperactivity-impulsiveness as well as additional questions 19-47 of the Vanderbilt scale assessing other behavioral symptoms (conducted by parent), actigraphy for quantitative measurement of activity, Quotient® ADHD test for objective measurement of micro-motion and shifts in attention state, PERMP-Math test, and CGI-I and CGI-S for assessment of global functioning. […]

[1] = Overall, Week 3, up to 100 mg bid
[2] = Overall, Week 4, up to 200 mg bid
[3] = Overall, Week 5, up to 400 mg bid
[4] = Tier 1, Week 3, up to 100 mg bid
[5] = Tier 1, Week 4, up to 200 mg bid
[6] = Tier 1, Week 5, up to 400 mg bid
[7] = Tier 2, Week 3, up to 100 mg bid
[8] = Tier 2, Week 4, up to 200 mg bid
[9] = Tier 2, Week 5, up to 400 mg bid

O=C1CC[C@H](C(=O)N2CCCCC2)N1 [NFC-1, fasoracetam monohydrate]
Vanderbilt (22q syndrome Subject 110, Week 2, 50 mg bid): 20
Vanderbilt (22q syndrome Subject 110, Week 3, 100 mg bid): 17
Vanderbilt (22q syndrome Subject 110, Week 4, 200 mg bid): 16
Vanderbilt (22q syndrome Subject 110, Week 5, 400 mg bid): 17
Vanderbilt (22q syndrome Subject 127, Week 2, 50 mg bid): 45
Vanderbilt (22q syndrome Subject 127, Week 3, 100 mg bid): 25
Vanderbilt (22q syndrome Subject 127, Week 5, 400 mg bid): 33
change in Vanderbilt ADHD score (Subject 110 (22q syndrome), week 5 compared to week 1): 5 points
Change in Vanderbilt (max dose 100 mg bid): −8 and −10 and −32
Final Vanderbilt (max dose 100 mg bid): 0 and 22 and 17
Change in Vanderbilt (max dose 200 mg bid): −14 and −3 and −9 and −32 and −5 and −1 and −35 and −2 and −8
Final Vanderbilt (max dose 200 mg bid): 23 and 3 and 0 and 18 and 31 and 1 and 12 and 39 and 30
Change in Vanderbilt (max dose 400 mg bid): −4 and −5 and 4 and −13 (2×) and 21 and −16 (2×) and 1 and 0 and −9 and −10 and −21 and −6 and −11 and −20 and −1
Final Vanderbilt (max dose 400 mg bid): 6 and 17 (2×) and 34 and 36 and 46 and 12 (2×) and 0 and 15 and 24 and 14 and 23 and 29 and 33 and 16 and 35
Mean (SEM) Vanderbilt ADHD score, Repeated Measures Analysis (Week 2, 50 mg bid): 26.4 (8.1)
Mean (SEM) Vanderbilt ADHD score, Repeated Measures Analysis (Week 3, up to 100 mg bid): 24.0 (8.1)
Mean (SEM) Vanderbilt ADHD score, Repeated Measures Analysis (Week 4, up to 200 mg bid): 23.3 (8.1)
Mean (SEM) Vanderbilt ADHD score, Repeated Measures Analysis (Week 5, up to 400 mg bid): 22.5 (8.1)
Percent of subjects completing the dose escalation to 400 mg bid that show improvement in Vanderbilt ADHD scores (at least 25% decrease) (Overall, Week 2, 50 mg bid): 14%
Percent of subjects completing the dose escalation to 400 mg bid that show robust improvement in Vanderbilt ADHD scores (at least 40% decrease) (Overall, Week 2, 50 mg bid): 7%
Percent of subjects demonstrating robust improvement in Vanderbilt ADHD score (at least 40% decrease) (Overall, Week 2, 50 mg bid): 7%
Percent of subjects with improvement in Vanderbilt ADHD score (at least 25% decrease) (Overall, Week 2, 50 mg bid): 25%
Percent of subjects completing the dose escalation to 400 mg bid that show improvement in Vanderbilt ADHD scores (at least 25% decrease) (Overall, Week 3, 100 mg bid): 36%
Percent of subjects completing the dose escalation to 400 mg bid that show robust improvement in Vanderbilt ADHD scores (at least 40% decrease) (Overall, Week 3, 100 mg bid): 29%
Percent of subjects demonstrating robust improvement in Vanderbilt ADHD score (at least 40% decrease) [1]: 25%
Percent of subjects with improvement in Vanderbilt ADHD score (at least 25% decrease) [1]: 43%
Percent of subjects completing the dose escalation to 400 mg bid that show improvement in Vanderbilt ADHD scores (at least 25% decrease) (Overall, Week 4, 200 mg bid): 36%
Percent of subjects completing the dose escalation to 400 mg bid that show robust improvement in Vanderbilt ADHD scores (at least 40% decrease) (Overall, Week 4, 200 mg bid): 21%
Percent of subjects demonstrating robust improvement in Vanderbilt ADHD score (at least 40% decrease) [2]: 32%
Percent of subjects with improvement in Vanderbilt ADHD score (at least 25% decrease) [2]: 43%
Percent of subjects completing the dose escalation to 400 mg bid that show improvement in Vanderbilt ADHD scores (at least 25% decrease) (Overall, Week 5, 400 mg bid): 57%
Percent of subjects completing the dose escalation to 400 mg bid that show robust improvement in Vanderbilt ADHD scores (at least 40% decrease) (Overall, Week 5, 400 mg bid): 36%
Percent of subjects demonstrating robust improvement in Vanderbilt ADHD score (at least 40% decrease) [3]: 37%
Percent of subjects with improvement in Vanderbilt ADHD score (at least 25% decrease) [3]: 52%
Percent of subjects completing the dose escalation to 400 mg bid that show improvement in Vanderbilt ADHD scores (at least 25% decrease) (Tier 1, Week 2, 50 mg bid): 22%
Percent of subjects completing the dose escalation to 400 mg bid that show robust improvement in Vanderbilt ADHD scores (at least 40% decrease) (Tier 1, Week 2, 50 mg bid): 11%
Percent of subjects demonstrating robust improvement in Vanderbilt ADHD score (at least 40% decrease) (Tier 1, Week 2, 50 mg bid): 12%
Percent of subjects with improvement in Vanderbilt ADHD score (at least 25% decrease) (Tier 1, Week 2, 50 mg bid): 29%
Percent of subjects completing the dose escalation to 400 mg bid that show improvement in Vanderbilt ADHD scores (at least 25% decrease) (Tier 1, Week 3, 100 mg bid): 44%
Percent of subjects completing the dose escalation to 400 mg bid that show robust improvement in Vanderbilt ADHD scores (at least 40% decrease) (Tier 1, Week 3, 100 mg bid): 44%
Percent of subjects demonstrating robust improvement in Vanderbilt ADHD score (at least 40% decrease) [4]: 44%
Percent of subjects with improvement in Vanderbilt ADHD score (at least 25% decrease) [4]: 50%
Percent of subjects completing the dose escalation to 400 mg bid that show improvement in Vanderbilt ADHD scores (at least 25% decrease) (Tier 1, Week 4, 200 mg bid): 44%
Percent of subjects completing the dose escalation to 400 mg bid that show robust improvement in Vanderbilt ADHD scores (at least 40% decrease) (Tier 1, Week 4, 200 mg bid): 33%
Percent of subjects demonstrating robust improvement in Vanderbilt ADHD score (at least 40% decrease) [5]: 50%
Percent of subjects with improvement in Vanderbilt ADHD score (at least 25% decrease) [5]: 56%
Percent of subjects completing the dose escalation to 400 mg bid that show improvement in Vanderbilt ADHD scores (at least 25% decrease) (Tier 1, Week 5, 400 mg bid): 56%
Percent of subjects completing the dose escalation to 400 mg bid that show robust improvement in Vanderbilt ADHD scores (at least 40% decrease) (Tier 1, Week 5, 400 mg bid): 33%
Percent of subjects demonstrating robust improvement in Vanderbilt ADHD score (at least 40% decrease) [6]: 44%
Percent of subjects with improvement in Vanderbilt ADHD score (at least 25% decrease) [6]: 56%
Percent of subjects completing the dose escalation to 400 mg bid that show improvement in Vanderbilt ADHD scores (at least 25% decrease) (Tier 2, Week 2, 50 mg bid): 0%
Percent of subjects completing the dose escalation to 400 mg bid that show robust improvement in Vanderbilt ADHD scores (at least 40% decrease) (Tier 2, Week 2, 50 mg bid): 0%
Percent of subjects demonstrating robust improvement in Vanderbilt ADHD score (at least 40% decrease) (Tier 2, Week 2, 50 mg bid): 0%
Percent of subjects with improvement in Vanderbilt ADHD score (at least 25% decrease) (Tier 2, Week 2, 50 mg bid): 29%
Percent of subjects completing the dose escalation to 400 mg bid that show improvement in Vanderbilt ADHD scores (at least 25% decrease) (Tier 2, Week 3, 100 mg bid): 20%
Percent of subjects completing the dose escalation to 400 mg bid that show robust improvement in Vanderbilt ADHD scores (at least 40% decrease) (Tier 2, Week 3, 100 mg bid): 0%
Percent of subjects demonstrating robust improvement in Vanderbilt ADHD score (at least 40% decrease) [7]: 0%
Percent of subjects with improvement in Vanderbilt ADHD score (at least 25% decrease) [7]: 43%
Percent of subjects completing the dose escalation to 400 mg bid that show improvement in Vanderbilt ADHD scores (at least 25% decrease) (Tier 2, Week 4, 200 mg bid): 20%
Percent of subjects completing the dose escalation to 400 mg bid that show robust improvement in Vanderbilt ADHD scores (at least 40% decrease) (Tier 2, Week 4, 200 mg bid): 0%
Percent of subjects demonstrating robust improvement in Vanderbilt ADHD score (at least 40% decrease) [8]: 14%
Percent of subjects with improvement in Vanderbilt ADHD score (at least 25% decrease) [8]: 43%
Percent of subjects completing the dose escalation to 400 mg bid that show improvement in Vanderbilt ADHD scores (at least 25% decrease) (Tier 2, Week 5, 400 mg bid): 60%
Percent of subjects completing the dose escalation to 400 mg bid that show robust improvement in Vanderbilt ADHD scores (at least 40% decrease) (Tier 2, Week 5, 400 mg bid): 40%
Percent of subjects demonstrating robust improvement in Vanderbilt ADHD score (at least 40% decrease) [9]: 43%
Percent of subjects with improvement in Vanderbilt ADHD score (at least 25% decrease) [9]: 71%
Percent of subjects completing the dose escalation to 400 mg bid that show improvement in Vanderbilt ADHD scores (at least 25% decrease) (Tier 3, Week 2, 50 mg bid): 33%
Percent of subjects completing the dose escalation to 400 mg bid that show robust improvement in Vanderbilt ADHD scores (at least 40% decrease) (Tier 3, Week 2, 50 mg bid): 33%
Percent of subjects demonstrating robust improvement in Vanderbilt ADHD score (at least 40% decrease) (Tier 3, Week 2, 50 mg bid): 0%
Percent of subjects with improvement in Vanderbilt ADHD score (at least 25% decrease) (Tier 3, Week 2, 50 mg bid): 0%
Percent of subjects completing the dose escalation to 400 mg bid that show improvement in Vanderbilt ADHD scores (at least 25% decrease) (Tier 3, Week 3, 100 mg bid): 33%
Percent of subjects completing the dose escalation to 400 mg bid that show robust improvement in Vanderbilt ADHD scores (at least 40% decrease) (Tier 3, Week 3, 100 mg bid): 0%
